Patent US20100087385A1 (priority 2006, published 2010)

Assays:
[1] = tested on: IBD mice (colon injury induced by acetic acid); assay: Experiment II: acetic acid induced IBD in mice, ammonium glycyrrhizinate; type: in vivo, Kuming mice; conditions: for GSH / MPO / MDA / SOD: colon homogenate; for GSH / MPO / MDA / SOD / CMDI: once per day, 10 days; for GSH: normal 0.58 ± 0.12, model 0.16 ± 0.09; for MPO: normal 3.37 ± 0.31, model 1.33 ± 0.83; for MDA: normal 10.58 ± 2.74, model 26.2 ± 5.5; for SOD: normal 707 ± 105, model 309 ± 68; for CMDI: normal 0.73 ± 0.03, model 1.75 ± 0.35
Procedure: Kuming mice were randomly distributed into seven groups consisting of normal control, model group, Adis positive control, monoammonium glycyrrhizinate oral administration, diammonium glycyrrhizinate oral administration, triammonium glycyrrhizinate oral administration, diammonium glycyrrhizinate injection. In Adis group, mice were provided Adis 600 mg/kg after enema, once a day. In glycyrrhizinate oral administration groups, 14 mg/kg dose of individual glycyrrhizinate was applied once per day. Normal control and model group were orally given by equal amount of normal saline daily. After seven days drug treatment, all mice except for normal control were stimulated with acetic acid to induce IBD. On day six, starvation was applied after drug treatment to all groups. On day seven, after drug treatment, mice were put to sleep with ether and the procedure of enema was performed before injecting 0.1 ml of 6% acitic acid using polyethylene tubings. Acitic acid was injected into mice through anus in depth about 1.5 cm to induce IBD. One minute after the actic acid injection, wash twice with normal saline and let the animals lie down and awake naturally. For normal control, mice were treated with equal amount of saline. Drug treatment continued to day 10 to all groups. 24 hours after the last drug treatment, the mice were sacrificed. Take and weight the whole colon, score colon organ index, and evaluate CMDI. Colon tissues were homogenized in Tris buffer and adjusted to the concentration 5% for MPO, MDA, SOD, and GSH tests.
(§1) CMDI: Cut open the mouse along the mesentery and take the whole colon. Observe peritoneal adhesion, colon ulcer, and congestion. The standard of evaluation was listed on Table 1.
(§2) Myeloperoxidase (MPO): Carefully weight tissue samples, use Tris buffer (weight to volume ratio 1:19) to prepare 5% homogenization solution by high-speed homogenizer. Handle all steps on ice. Protein concentration was determined by method Lowry and use MPO test kit.
(§3) Lipid peroxidase (MDA): TBA was used to detect MDA in the homogenization solution
Superoxide dismutase (SOD): Method of pyrogallol was used to detect the activity of SOD in the homogenization solution
(§4) Glutathione (GSH): Follow the product insert coming with the test kit to detect GSH in the samples
The total score is combined with both parts of A and B.

[2] = tested on: IBD mice (colon injury induced by acetic acid); assay: Experiment I: acetic acid induced IBD in mice, glycyrrhizin and glycyrrhetinic acid; type: in vivo, KuMing mice; conditions: glycyrrhizin 105 mg/kg, glycyrrhetinic acid 72 mg/kg; for Inflammatory score / CMDI / GSH / MPO / MDA / SOD: once per day, 10 days; for Inflammatory score: normal 0, model 7.50 ± 0.7; for CMDI: normal 0.73 ± 0.03, model 1.75 ± 0.35; for GSH / MPO / MDA / SOD: colon homogenate; for GSH: normal 0.58 ± 0.12, model 0.16 ± 0.09; for MPO: normal 3.37 ± 0.31, model 1.33 ± 0.83; for MDA: normal 10.58 ± 2.74, model 26.2 ± 5.5; for SOD: normal 707 ± 105, model 309 ± 68; for CMDI of IBD mice decreased / MPO activity increased / inflammatory scores were lowered: once per day for ten days
Procedure: In Adis group, mice were provided Adis 600 mg/kg afer enema, once per day. Normal control and model groups were orally given with equal amount of normal saline daily. After seven days drug treatment, all mice except for normal control were stimulated with acetic acid to induce IBD. On day six, starvation was applied after drug treatment to all groups. On day seven, after drug treatment, mice were put to sleep with ether and the procedure of enema was performed before injecting 0.1 ml of 6% acitic acid using polyethylene tubings. Acitic acid was injected into mice through anus in depth about 1.5 cm to induce IBD. One minute after the actic acid injection, wash twice with normal saline and let the animals lay down and awake naturally. For normal control, mice were treated with equal amount of saline.
Drug treatment continued to day 10 to all groups. 24 hours after the last drug treatment, the mice were sacrificed. Take and weight the whole colon, score colon organ index, and evaluate CMDI. Colon tissues were homogenized in Tris buffer and adjusted to the concentration 5% for MPO, MDA, SOD, and GSH tests.
as §1, §2, §3
Superoxide dismutas (SOD): Method of pyrogallol was used to detect the activity of SOD in the homogenization solution
as §4
The total score is combined with both parts of A with B.

[3] = injection (IP.) 14 mg/kg, once per day for ten days
[4] = oral 14 mg/kg, once per day for ten days

Structure (SMILES)	GSH ([1]; oral 14 mg/kg)	MPO ([1]; oral 14 mg/kg)	MDA ([1]; oral 14 mg/kg)	SOD ([1]; oral 14 mg/kg)	CMDI of IBD mice decreased [1, 4]	MPO activity increased [1, 4]	inflammatory scores were lowered [1, 4]	CMDI ([1]; oral 14 mg/kg)	CMDI ([2]; IP injection)	GSH ([2]; IP injection)	MPO ([2]; IP injection)	MDA ([2]; IP injection)	GSH ([2]; oral)	MPO ([2]; oral)	MDA ([2]; oral)	CMDI of IBD mice decreased ([2]; injection (IP))	MPO activity increased ([2]; injection (IP))	inflammatory scores were lowered ([2]; injection (IP))	CMDI of IBD mice decreased ([2]; oral)	MPO activity increased ([2]; oral)	other results
CC1(C)[C@@H](O[C@H]2O[C@H](C(=O)O)[C@@H](O)[C@H](O)[C@H]2O[C@@H]2O[C@H](C(=O)O)[C@@H](O)[C@H](O)[C@H]2O)CC[C@]2(C)[C@H]3C(=O)C=C4[C@@H]5C[C@@](C)(C(=O)O)CC[C@]5(C)CC[C@@]4(C)[C@]3(C)CC[C@@H]12.N.N [diammonium glycyrrhizinate]	0.49 ± 0.14^ΔΔ mg/mgpro.	2.93 ± 0.26^ΔΔ U/mgpro.	8.32 ± 5.04^ΔΔ nmol/mgpro.	505 ± 132^ΔΔ U/mgpro.	39.4%	1.20 ×	1.73 ×	1.06 ± 0.31^ΔΔ g/100 g													GSH ([1]; injection 14 mg/kg): 0.27 ± 0.13^ΔΔ mg/mgpro.; MPO ([1]; injection 14 mg/kg): 3.55 ± 0.45^ΔΔ U/mgpro.; MDA ([1]; injection 14 mg/kg): 7.85 ± 3.55^ΔΔ nmol/mgpro.; SOD ([1]; injection 14 mg/kg): 533 ± 101^ΔΔ U/mgpro.; CMDI ([1]; injection 14 mg/kg): 0.97 ± 0.18^ΔΔ g/100 g; CMDI of IBD mice decreased [1, 3]: 45.7%; MPO activity increased [1, 3]: 1.67 ×; inflammatory score was lowered [1, 3]: 2.75 ×
CC1(C)[C@@H](O[C@H]2O[C@H](C(=O)O)[C@@H](O)[C@H](O)[C@H]2O[C@@H]2O[C@H](C(=O)O)[C@@H](O)[C@H](O)[C@H]2O)CC[C@]2(C)[C@H]3C(=O)C=C4[C@@H]5C[C@@](C)(C(=O)O)CC[C@]5(C)CC[C@@]4(C)[C@]3(C)CC[C@@H]12 [Glycyrrhizin, glycyrrhizic acid]									0.88 ± 0.18^ΔΔ g/100 g	0.36 ± 0.09^ΔΔ mg/mgpro.	5.59 ± 0.94^ΔΔ U/mgpro.	5.08 ± 1.91^ΔΔ nmol/mgpro.	0.33 ± 0.22^ΔΔ mg/mgpro.	5.09 ± 0.29^ΔΔ U/mgpro.	6.04 ± 0.89^ΔΔ nmol/mgpro.	98.86%	3.20 ×	4 ×	82.3%	2.83 ×	Inflammatory score ([2]; IP injection): 1.5 ± 0.41^ΔΔ; Inflammatory score ([2]; IP injection, listed as glycyrrhizin): 1.5; SOD ([2]; IP injection): 467 ± 49^ΔΔ U/mgpro.; SOD ([2]; oral): 425 ± 12^ΔΔ U/mgpro.; inflammatory scores were lowered ([2]; oral): 4 ×; Inflammatory score ([2]; oral): 1.5 ± 0.31^ΔΔ; Inflammatory score ([2]; oral, listed as glycyrrhizin): 1.5; CMDI ([2]; oral): 0.96 ± 0.03^ΔΔ g/100 g
CC1(C)[C@@H](O[C@H]2O[C@H](C(=O)O)[C@@H](O)[C@H](O)[C@H]2O[C@@H]2O[C@H](C(=O)O)[C@@H](O)[C@H](O)[C@H]2O)CC[C@]2(C)[C@H]3C(=O)C=C4[C@@H]5C[C@@](C)(C(=O)O)CC[C@]5(C)CC[C@@]4(C)[C@]3(C)CC[C@@H]12 [triammonium glycyrrhizinate]	0.26 ± 0.09^ΔΔ mg/mgpro.	1.59 ± 0.94^ΔΔ U/mgpro.	16.88 ± 5.97^ΔΔ nmol/mgpro.	368 ± 79^ΔΔ U/mgpro.	14.9%	0.20 ×	1.5 ×	1.49 ± 0.08^ΔΔ g/100 g													
CC1(C)[C@@H](O[C@H]2O[C@H](C(=O)O)[C@@H](O)[C@H](O)[C@H]2O[C@@H]2O[C@H](C(=O)O)[C@@H](O)[C@H](O)[C@H]2O)CC[C@]2(C)[C@H]3C(=O)C=C4[C@@H]5C[C@@](C)(C(=O)O)CC[C@]5(C)CC[C@@]4(C)[C@]3(C)CC[C@@H]12.N [monoammonium glycyrrhizinate]	0.32 ± 0.12^ΔΔ mg/mgpro.	2.99 ± 0.26^ΔΔ U/mgpro.	16.14 ± 5.81^ΔΔ nmol/mgpro.	412 ± 112^ΔΔ U/mgpro.	14.3%	1.25 ×	1.5 ×	1.50 ± 0.03^Δ g/100 g													
CC1(C)C2CC[C@]3(C)C(C(=O)C=C4C5C[C@@](C)(C(=O)O)CC[C@]5(C)CCC43C)[C@@]2(C)CC[C@@H]1O (some centres unmarked) [glycyrrhetinic acid]									1.07 ± 0.28^ΔΔ g/100 g	0.31 ± 0.08^ΔΔ mg/mgpro.	4.51 ± 0.35^ΔΔ U/mgpro.	5.85 ± 1.33^ΔΔ nmol/mgpro.	0.31 ± 0.08^ΔΔ mg/mgpro.	3.48 ± 0.46^ΔΔ U/mgpro.	4.56 ± 2.28^ΔΔ nmol/mgpro.	63.55%	2.39 ×	2.75 ×	57.65%	1.62 ×	CMDI ([2]; oral): 1.11 ± 0.41^ΔΔ g/100 g
